Test results from PubChem BioAssay AID2060897 (Molecular Pharmacology Branch, DTP, NCI, 2025).

Tested on: 966289-007-R4-J1-PDC complex spheroid viability
Assay: Anticancer human tumor 966289-007-R4-J1-PDC patient-derived pancreatic adenocarcinoma cell line growth inhibition [RAS]
Settings: for IC50: curve of first compound; for viability, T/C: stronger effect = lower value
Summary of the method: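 Multi-cell-type spheroids: tumor cells plus HUVEC endothelial cells and mesenchymal stem cells. RAS-pathway inhibitors were combined with targeted agents, each dosed in half-log steps down from clinical Cmax, or from 10 microM when Cmax was unknown.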
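Also: spheroids exposed to agents for one week before readout.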
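For viability, T/C in this document: percent viability relative to DMSO vehicle control wells as 100%.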

Structure (SMILES): CCc1c2c(nc3ccc(O)cc13)-c1cc3c(c(=O)n1C2)COC(=O)[C@]3(O)CC + CCn1c(-c2cccnc2C(C)OC)c2c3cc(ccc31)N1CCOC(CC(NC(=O)C(C(C)C)N(C)C(=O)C3(F)CCN(C(=O)C#CC(C)(C)N(C)C)CC3)C(=O)N3CCCC(N3)C(=O)OCC(C)(C)C2)C1
- IC50 (second compound 0.000949 µM): 1.76 nM
- IC50 (second compound 0.003 µM): 1.73 nM
- IC50 (second compound 0.00949 µM): 1.62 nM
- IC50 (second compound 0.03 µM): 1.18 nM
- IC50 (second compound 0.0949 µM): 0.96 nM
- IC50 (second compound 0.3 µM): < 0.949 nM
- viability, T/C (second compound 0.000949 µM, first compound 0.000949 µM): 103%
- viability, T/C (second compound 0.000949 µM, first compound 0.003 µM): 4.09%
- viability, T/C (second compound 0.000949 µM, first compound 0.00949 µM): 0.96%
- viability, T/C (second compound 0.000949 µM, first compound 0.03 µM): 0.65%
- viability, T/C (second compound 0.000949 µM, first compound 0.0949 µM): 0.49%
- viability, T/C (second compound 0.000949 µM, first compound 0.3 µM): 0.69%
- viability, T/C (second compound 0.003 µM, first compound 0.000949 µM): 99.8%
- viability, T/C (second compound 0.003 µM, first compound 0.003 µM): 4.15%
- viability, T/C (second compound 0.003 µM, first compound 0.00949 µM): 0.79%
- viability, T/C (second compound 0.003 µM, first compound 0.03 µM): 0.63%
- viability, T/C (second compound 0.003 µM, first compound 0.0949 µM): 0.64%
- viability, T/C (second compound 0.003 µM, first compound 0.3 µM): 0.67%
- viability, T/C (second compound 0.00949 µM, first compound 0.000949 µM): 89.8%
- viability, T/C (second compound 0.00949 µM, first compound 0.003 µM): 4.69%
- viability, T/C (second compound 0.00949 µM, first compound 0.00949 µM): 1.12%
- viability, T/C (second compound 0.00949 µM, first compound 0.03 µM): 0.52%
- viability, T/C (second compound 0.00949 µM, first compound 0.0949 µM): 0.51%
- viability, T/C (second compound 0.00949 µM, first compound 0.3 µM): 0.56%
- viability, T/C (second compound 0.03 µM, first compound 0.000949 µM): 60.8%
- viability, T/C (second compound 0.03 µM, first compound 0.003 µM): 3.34%
- viability, T/C (second compound 0.03 µM, first compound 0.00949 µM): 1.17%
- viability, T/C (second compound 0.03 µM, first compound 0.03 µM): 0.76%
- viability, T/C (second compound 0.03 µM, first compound 0.0949 µM): 0.58%
- viability, T/C (second compound 0.03 µM, first compound 0.3 µM): 0.79%
- viability, T/C (second compound 0.0949 µM, first compound 0.000949 µM): 50.5%
- viability, T/C (second compound 0.0949 µM, first compound 0.003 µM): 2.92%
- viability, T/C (second compound 0.0949 µM, first compound 0.00949 µM): 0.55%
- viability, T/C (second compound 0.0949 µM, first compound 0.03 µM): 0.56%
- viability, T/C (second compound 0.0949 µM, first compound 0.0949 µM): 0.56%
- viability, T/C (second compound 0.0949 µM, first compound 0.3 µM): 0.53%
- viability, T/C (second compound 0.3 µM, first compound 0.000949 µM): 18.4%
- viability, T/C (second compound 0.3 µM, first compound 0.003 µM): 1.07%
- viability, T/C (second compound 0.3 µM, first compound 0.00949 µM): 0.76%
- viability, T/C (second compound 0.3 µM, first compound 0.03 µM): 0.59%
- viability, T/C (second compound 0.3 µM, first compound 0.0949 µM): 0.68%
- viability, T/C (second compound 0.3 µM, first compound 0.3 µM): 0.5%

Structure (SMILES): CCc1c2c(nc3ccc(O)cc13)-c1cc3c(c(=O)n1C2)COC(=O)[C@]3(O)CC + C=CC(=O)N1CCN(c2nc(OCC3CCCN3C)nc3c(F)c(-c4nc(N)cc(C)c4C(F)(F)F)c(Cl)cc23)C(C)C1
- IC50 (second compound 0.00316 µM): 1.5 nM
- IC50 (second compound 0.01 µM): 1.38 nM
- IC50 (second compound 0.0316 µM): 1.34 nM
- IC50 (second compound 0.1 µM): 1.22 nM
- IC50 (second compound 0.316 µM): 1.31 nM
- IC50 (second compound 1 µM): 1.12 nM
- viability, T/C (second compound 0.00316 µM, first compound 0.000949 µM): 82%
- viability, T/C (second compound 0.00316 µM, first compound 0.003 µM): 1.8%
- viability, T/C (second compound 0.00316 µM, first compound 0.00949 µM): 0.98%
- viability, T/C (second compound 0.00316 µM, first compound 0.03 µM): 0.95%
- viability, T/C (second compound 0.00316 µM, first compound 0.0949 µM): 0.87%
- viability, T/C (second compound 0.00316 µM, first compound 0.3 µM): 0.85%
- viability, T/C (second compound 0.01 µM, first compound 0.000949 µM): 72.8%
- viability, T/C (second compound 0.01 µM, first compound 0.003 µM): 2.38%
- viability, T/C (second compound 0.01 µM, first compound 0.00949 µM): 0.97%
- viability, T/C (second compound 0.01 µM, first compound 0.03 µM): 1.12%
- viability, T/C (second compound 0.01 µM, first compound 0.0949 µM): 0.92%
- viability, T/C (second compound 0.01 µM, first compound 0.3 µM): 0.91%
- viability, T/C (second compound 0.0316 µM, first compound 0.000949 µM): 70.5%
- viability, T/C (second compound 0.0316 µM, first compound 0.003 µM): 2.51%
- viability, T/C (second compound 0.0316 µM, first compound 0.00949 µM): 1.14%
- viability, T/C (second compound 0.0316 µM, first compound 0.03 µM): 0.91%
- viability, T/C (second compound 0.0316 µM, first compound 0.0949 µM): 0.87%
- viability, T/C (second compound 0.0316 µM, first compound 0.3 µM): 0.86%
- viability, T/C (second compound 0.1 µM, first compound 0.000949 µM): 63.4%
- viability, T/C (second compound 0.1 µM, first compound 0.003 µM): 2.05%
- viability, T/C (second compound 0.1 µM, first compound 0.00949 µM): 1.09%
- viability, T/C (second compound 0.1 µM, first compound 0.03 µM): 0.89%
- viability, T/C (second compound 0.1 µM, first compound 0.0949 µM): 0.99%
- viability, T/C (second compound 0.1 µM, first compound 0.3 µM): 0.86%
- viability, T/C (second compound 0.316 µM, first compound 0.000949 µM): 68.3%
- viability, T/C (second compound 0.316 µM, first compound 0.003 µM): 2.24%
- viability, T/C (second compound 0.316 µM, first compound 0.00949 µM): 1.14%
- viability, T/C (second compound 0.316 µM, first compound 0.03 µM): 1.03%
- viability, T/C (second compound 0.316 µM, first compound 0.0949 µM): 0.87%
- viability, T/C (second compound 0.316 µM, first compound 0.3 µM): 1.11%
- viability, T/C (second compound 1 µM, first compound 0.000949 µM): 58.1%
- viability, T/C (second compound 1 µM, first compound 0.003 µM): 1.43%
- viability, T/C (second compound 1 µM, first compound 0.00949 µM): 1.03%
- viability, T/C (second compound 1 µM, first compound 0.03 µM): 0.98%
- viability, T/C (second compound 1 µM, first compound 0.0949 µM): 0.91%
- viability, T/C (second compound 1 µM, first compound 0.3 µM): 0.97%
